Experimental data: US9874565B2, “Oncogene associated with human cancers and methods of use thereof” (Dana-Farber Cancer Institute, Inc., priority 2013, dated 2018)

Test system: hMECs transformed with MECP2
Assay: growth inhibition of hMECs transformed with MECP2 compared with isogenic cells transformed by activated RAS
Format: cell-based, human
Excerpt: Because MECP2 only binds to methylated CpG sequences and hydroxymethylcytosine, and because data have shown that oncogenic activation of MECP2 depends upon its DNA-binding region, […] it is likely that the oncogenic activity of MECP2 is mediated by binding of the protein to methylated CpG sequences of hydroxymethylated cytosine. For this reason, it was investigated whether DNA methylation inhibitors hinder cell growth in a MECP2-dependent manner. DNA methylation inhibitors prevent the formation of both methylated CpG sequences and hydroxymethylated cytosine.
MECP2 is known to be present in a complex with Class I histone deacetylases. […] This led to investigation of whether MECP2-transformed cells were particularly vulnerable to HDAC inhibitors. […] Furthermore, it was shown that combined treatment with the DNA methylation inhibitor 5-azacytdine and the HDAC inhibitor Trichostatin A is synergistic in a hMEC experimental system.

SMILES | sensitivity of hMECs transformed with MECP2 relative to isogenic cells transformed by activated RAS (DNA methylation inhibitors, MECP2-transformed vs activated RAS-transformed isogenic hMECs) | susceptibility of MECP2-transformed cells relative to isogenic cells transformed by activated RAS (HDAC inhibitor, MECP2-transformed vs activated RAS-transformed isogenic cells)
Nc1ncn([C@@H]2O[C@H](CO)[C@@H](O)[C@H]2O)c(=O)n1 [5-azacytidine] | an order of magnitude more sensitive | 
CC(/C=C/C(=O)NO)=C\[C@@H](C)C(=O)c1ccc(N(C)C)cc1 [Trichostatin A] |  | an order of magnitude more susceptible
